Measurements taken from paper PMC11396062, “The n-Butanol Extract Obtained from the Inner Bark of Tabebuia rosea (Bertol.) DC, Specioside, and Catalposide Induce Leukemia Cell Apoptosis in the Presence of Apicidin” (Molecules, 2024).

Tests used:
Bcl-2 = assay: Western blot Bcl-2 protein; assay type: cell-based, human; conditions: THP-1, catalposide 44 μg/mL, specioside 40 μg/mL, APC pretreatment (Figure 9)
Protocol: (§1) THP-1 cells were seeded in 24-well plates (5 × 10^5 cells/well), and after 24 h of incubation, they were pretreated with 1 µM apicidin for 24 h and then treated with different concentrations of the n-butanol extract, catalposide, and specioside for 24 h. After treatment, the cells were lysed with an Abcam protein extraction kit (ab270054), and a phosphatase inhibitor cocktail (ab201115) was added. The supernatants of the cell extracts were quantified with a BCA protein assay (Thermo Scientific Pierce #23227, Waltham, MA, USA). Equivalent amounts of protein were electrophoresed on 10% SDS polyacrylamide gels and then electroblotted onto 0.45 μm polyvinylidene difluoride (PVDF) membranes (GE Healthcare, Chicago, IL, USA). […] The signals were detected using SuperSignal™ West Pico PLUS Chemiluminescent Substrate (Thermo Scientific Pierce cat 34577) and analyzed with a ChemiDoc XRS+ system (Bio-Rad, Hercules, CA, USA). The density of each band was measured using ImageJ software V. 1.53n, 7 November 2021 (NIH, Bethesda, MD, USA), and the protein levels were normalized to the GAPDH levels. The data are expressed as the means of three independent experiments. […]

BAX = assay: Western blot Bax protein; assay type: cell-based, human; conditions: THP-1, catalposide 44 and 66 μg/mL, specioside 20, 40 and 60 μg/mL
Protocol: as §1

Hep-G2 cells = test system: Hep-G2 cells; parameters: method as in PMID 21678519; conditions: cited from earlier work

| SMILES | antiapoptotic protein Bcl-2 (Western blot) (Bcl-2) | expression of Bax protein with APC pretreatment (BAX) | effect in Hep-G2 cells (Hep-G2 cells) |
| --- | --- | --- | --- |
| O=C(/C=C/c1ccc(O)cc1)O[C@H]1[C@@H]2C=CO[C@@H](O[C@@H]3O[C@H](CO)[C@@H](O)[C@H](O)[C@H]3O)[C@@H]2[C@@]2(CO)O[C@@H]12 [Specioside] | decrease | increased | – |
| O=C(O[C@H]1[C@@H]2C=CO[C@@H](O[C@@H]3O[C@H](CO)[C@@H](O)[C@H](O)[C@H]3O)[C@@H]2[C@@]2(CO)O[C@@H]12)c1ccc(O)cc1 [Catalposide, catalposide] | decrease | increased | only had cytotoxic and cytostatic effects |
